Measurements published in US20200123175A1, “NOVEL ISOTHIAZOLO-BASED BICYCLES, PROCESSES FOR THEIR PREPARATION AND THEIR USE AS HERBICIDES AND/OR PLANT GROWTH REGULATORS” (Bayer CropScience Aktiengesellschaft, priority 2017, published 2020).

These compounds were tested on AMARE (assay: Herbicidal action post-emergence (PO)). Conditions: dosage 320 g/ha.
Format: in vivo, Amaranthus retroflexus

Row | SMILES | AMARE
1 | COC(=O)CCC(=O)Nc1nsc2c(=O)n(CC3CCCCC3)cnc12 [Example I-72] | 100
2 | CC(c1ccccc1)n1cnc2c(NC(=O)C3CC3)nsc2c1=O (centres unmarked) [Example I-40] | 100
3 | O=C(Nc1nsc2c(=O)n(Cc3ccc(F)cc3F)cnc12)C(F)(F)C(F)(F)Cl [Example I-76] | 100
4 | CCC(=O)Nc1nsc2c(=O)n(CC3CCCCC3)cnc12 [Example I-54] | 100
5 | Nc1nsc2c1NCN(CC1CCCCC1)C2=O [Example I-61] | 100
6 | O=C(Nc1nsc2c(=O)n(CC3CCCCC3)cnc12)C(F)(F)F [Example I-53] | 100
7 | Nc1nsc2c1NCN(CC1CCCC1)C2=O [Example I-63] | 100
8 | O=C(Nc1nsc2c(=O)n(CC3CCCCC3)cnc12)C(F)(F)C(F)(F)F [Example I-57] | 100
9 | CC(=O)Nc1nsc2c(=O)n(CC3CCCCC3)cnc12 [Example I-55] | 100
10 | O=C(Nc1nsc2c(=O)n(CC3CCCCC3)cnc12)C(F)(F)C(F)(F)C(F)(F)F [Example I-58] | 100
11 | O=C(CC(F)(F)F)Nc1nsc2c(=O)n(CC3CCCCC3)cnc12 [Example I-73] | 100

These compounds were tested on VIOTR (assay: Herbicidal action post-emergence (PO)). Conditions: dosage 320 g/ha.
Format: in vivo, Viola tricolor

Row | SMILES | VIOTR
12 | COC(=O)CCC(=O)Nc1nsc2c(=O)n(CC3CCCCC3)cnc12 [Example I-72] | 90
13 | CC(c1ccccc1)n1cnc2c(NC(=O)C3CC3)nsc2c1=O (centres unmarked) [Example I-40] | 100
14 | O=C(Nc1nsc2c(=O)n(Cc3ccc(F)cc3F)cnc12)C(F)(F)C(F)(F)Cl [Example I-76] | 100
15 | CCC(=O)Nc1nsc2c(=O)n(CC3CCCCC3)cnc12 [Example I-54] | 90
16 | Nc1nsc2c1NCN(CC1CCCCC1)C2=O [Example I-61] | 100
17 | O=C(Nc1nsc2c(=O)n(CC3CCCCC3)cnc12)C(F)(F)F [Example I-53] | 100
18 | Nc1nsc2c1NCN(CC1CCCC1)C2=O [Example I-63] | 100
19 | O=C(Nc1nsc2c(=O)n(CC3CCCCC3)cnc12)C(F)(F)C(F)(F)F [Example I-57] | 100
20 | CC(=O)Nc1nsc2c(=O)n(CC3CCCCC3)cnc12 [Example I-55] | 100
21 | O=C(Nc1nsc2c(=O)n(CC3CCCCC3)cnc12)C(F)(F)C(F)(F)C(F)(F)F [Example I-58] | 100
22 | O=C(CC(F)(F)F)Nc1nsc2c(=O)n(CC3CCCCC3)cnc12 [Example I-73] | 100

What follows are compounds tested on PHBPU (assay: Herbicidal action post-emergence (PO)). Conditions: dosage 320 g/ha.
Format: in vivo, Pharbitis purpurea

Row | SMILES | PHBPU
23 | COC(=O)CCC(=O)Nc1nsc2c(=O)n(CC3CCCCC3)cnc12 [Example I-72] | 100
24 | CC(c1ccccc1)n1cnc2c(NC(=O)C3CC3)nsc2c1=O (centres unmarked) [Example I-40] | 100
25 | Nc1nsc2c1NCN(CC1CCCCC1)C2=O [Example I-61] | 90
26 | O=C(Nc1nsc2c(=O)n(CC3CCCCC3)cnc12)C(F)(F)F [Example I-53] | 100

These compounds were tested on AMARE (assay: Herbicidal action pre-emergence (PE)). Conditions: dosage 320 g/ha.
Format: in vivo, Amaranthus retroflexus

Row | SMILES | AMARE
27 | COC(=O)CCC(=O)Nc1nsc2c(=O)n(CC3CCCCC3)cnc12 [Example I-72] | 100
28 | O=C(Nc1nsc2c(=O)n(Cc3ccc(F)cc3F)cnc12)C(F)(F)C(F)(F)Cl [Example I-76] | 100
29 | CCC(=O)Nc1nsc2c(=O)n(CC3CCCCC3)cnc12 [Example I-54] | 100
30 | Nc1nsc2c1NCN(CC1CCCCC1)C2=O [Example I-61] | 100
31 | O=C(Nc1nsc2c(=O)n(CC3CCCCC3)cnc12)C(F)(F)F [Example I-53] | 100
32 | Nc1nsc2c1NCN(CC1CCCC1)C2=O [Example I-63] | 100
33 | O=C(Nc1nsc2c(=O)n(CC3CCCCC3)cnc12)C(F)(F)C(F)(F)F [Example I-57] | 100
34 | CC(=O)Nc1nsc2c(=O)n(CC3CCCCC3)cnc12 [Example I-55] | 100
35 | O=C(Nc1nsc2c(=O)n(CC3CCCCC3)cnc12)C(F)(F)C(F)(F)C(F)(F)F [Example I-58] | 100
36 | O=C(CC(F)(F)F)Nc1nsc2c(=O)n(CC3CCCCC3)cnc12 [Example I-73] | 100

Each compound was assayed on ABUTH (assay: Herbicidal action post-emergence (PO)). Conditions: dosage 320 g/ha.
Format: in vivo, Abutilon theophrasti

Row | SMILES | ABUTH
37 | COC(=O)CCC(=O)Nc1nsc2c(=O)n(CC3CCCCC3)cnc12 [Example I-72] | 100
38 | CC(c1ccccc1)n1cnc2c(NC(=O)C3CC3)nsc2c1=O (centres unmarked) [Example I-40] | 100
39 | O=C(Nc1nsc2c(=O)n(Cc3ccc(F)cc3F)cnc12)C(F)(F)C(F)(F)Cl [Example I-76] | 80
40 | CCC(=O)Nc1nsc2c(=O)n(CC3CCCCC3)cnc12 [Example I-54] | 100
41 | Nc1nsc2c1NCN(CC1CCCCC1)C2=O [Example I-61] | 100
42 | O=C(Nc1nsc2c(=O)n(CC3CCCCC3)cnc12)C(F)(F)F [Example I-53] | 100
43 | Nc1nsc2c1NCN(CC1CCCC1)C2=O [Example I-63] | 100
44 | O=C(Nc1nsc2c(=O)n(CC3CCCCC3)cnc12)C(F)(F)C(F)(F)F [Example I-57] | 100
45 | CC(=O)Nc1nsc2c(=O)n(CC3CCCCC3)cnc12 [Example I-55] | 100
46 | O=C(Nc1nsc2c(=O)n(CC3CCCCC3)cnc12)C(F)(F)C(F)(F)C(F)(F)F [Example I-58] | 90
47 | O=C(CC(F)(F)F)Nc1nsc2c(=O)n(CC3CCCCC3)cnc12 [Example I-73] | 100

These compounds were tested on MATIN (assay: Herbicidal action pre-emergence (PE)). Conditions: dosage 320 g/ha.
Format: in vivo, Matricaria inodora

Row | SMILES | MATIN
48 | COC(=O)CCC(=O)Nc1nsc2c(=O)n(CC3CCCCC3)cnc12 [Example I-72] | 100
49 | O=C(Nc1nsc2c(=O)n(Cc3ccc(F)cc3F)cnc12)C(F)(F)C(F)(F)Cl [Example I-76] | 100
50 | CCC(=O)Nc1nsc2c(=O)n(CC3CCCCC3)cnc12 [Example I-54] | 100
51 | Nc1nsc2c1NCN(CC1CCCCC1)C2=O [Example I-61] | 100
52 | O=C(Nc1nsc2c(=O)n(CC3CCCCC3)cnc12)C(F)(F)F [Example I-53] | 100
53 | Nc1nsc2c1NCN(CC1CCCC1)C2=O [Example I-63] | 100
54 | O=C(Nc1nsc2c(=O)n(CC3CCCCC3)cnc12)C(F)(F)C(F)(F)F [Example I-57] | 100
55 | CC(=O)Nc1nsc2c(=O)n(CC3CCCCC3)cnc12 [Example I-55] | 100
56 | O=C(Nc1nsc2c(=O)n(CC3CCCCC3)cnc12)C(F)(F)C(F)(F)C(F)(F)F [Example I-58] | 90
57 | O=C(CC(F)(F)F)Nc1nsc2c(=O)n(CC3CCCCC3)cnc12 [Example I-73] | 100

The compounds below were run on POLCO (assay: Herbicidal action pre-emergence (PE)). Conditions: dosage 320 g/ha.
Format: in vivo, Polygonum convolvulus

Row | SMILES | POLCO
58 | COC(=O)CCC(=O)Nc1nsc2c(=O)n(CC3CCCCC3)cnc12 [Example I-72] | 100
59 | O=C(Nc1nsc2c(=O)n(Cc3ccc(F)cc3F)cnc12)C(F)(F)C(F)(F)Cl [Example I-76] | 100
60 | CCC(=O)Nc1nsc2c(=O)n(CC3CCCCC3)cnc12 [Example I-54] | 100
61 | Nc1nsc2c1NCN(CC1CCCCC1)C2=O [Example I-61] | 100
62 | O=C(Nc1nsc2c(=O)n(CC3CCCCC3)cnc12)C(F)(F)F [Example I-53] | 100
63 | Nc1nsc2c1NCN(CC1CCCC1)C2=O [Example I-63] | 100
64 | O=C(Nc1nsc2c(=O)n(CC3CCCCC3)cnc12)C(F)(F)C(F)(F)F [Example I-57] | 100
65 | CC(=O)Nc1nsc2c(=O)n(CC3CCCCC3)cnc12 [Example I-55] | 100
66 | O=C(Nc1nsc2c(=O)n(CC3CCCCC3)cnc12)C(F)(F)C(F)(F)C(F)(F)F [Example I-58] | 90
67 | O=C(CC(F)(F)F)Nc1nsc2c(=O)n(CC3CCCCC3)cnc12 [Example I-73] | 100

Each compound was assayed on VIOTR (assay: Herbicidal action pre-emergence (PE)). Conditions: dosage 320 g/ha.
Format: in vivo, Viola tricolor

Row | SMILES | VIOTR
68 | COC(=O)CCC(=O)Nc1nsc2c(=O)n(CC3CCCCC3)cnc12 [Example I-72] | 100
69 | O=C(Nc1nsc2c(=O)n(Cc3ccc(F)cc3F)cnc12)C(F)(F)C(F)(F)Cl [Example I-76] | 100
70 | CCC(=O)Nc1nsc2c(=O)n(CC3CCCCC3)cnc12 [Example I-54] | 100
71 | Nc1nsc2c1NCN(CC1CCCCC1)C2=O [Example I-61] | 100
72 | O=C(Nc1nsc2c(=O)n(CC3CCCCC3)cnc12)C(F)(F)F [Example I-53] | 100
73 | Nc1nsc2c1NCN(CC1CCCC1)C2=O [Example I-63] | 100
74 | O=C(Nc1nsc2c(=O)n(CC3CCCCC3)cnc12)C(F)(F)C(F)(F)F [Example I-57] | 100
75 | CC(=O)Nc1nsc2c(=O)n(CC3CCCCC3)cnc12 [Example I-55] | 100
76 | O=C(Nc1nsc2c(=O)n(CC3CCCCC3)cnc12)C(F)(F)C(F)(F)C(F)(F)F [Example I-58] | 100
77 | O=C(CC(F)(F)F)Nc1nsc2c(=O)n(CC3CCCCC3)cnc12 [Example I-73] | 100

The compounds below were run on SETVI (assay: Herbicidal action post-emergence (PO)). Conditions: dosage 320 g/ha.
Format: in vivo, Setaria viridis

Row | SMILES | SETVI
78 | COC(=O)CCC(=O)Nc1nsc2c(=O)n(CC3CCCCC3)cnc12 [Example I-72] | 90
79 | CC(c1ccccc1)n1cnc2c(NC(=O)C3CC3)nsc2c1=O (centres unmarked) [Example I-40] | 90
80 | Nc1nsc2c1NCN(CC1CCCCC1)C2=O [Example I-61] | 100
81 | O=C(Nc1nsc2c(=O)n(CC3CCCCC3)cnc12)C(F)(F)F [Example I-53] | 100

What follows are compounds tested on ECHCG (assay: Herbicidal action pre-emergence (PE)). Conditions: dosage 320 g/ha.
Format: in vivo, Echinochloa crus-galli

Row | SMILES | ECHCG
82 | COC(=O)CCC(=O)Nc1nsc2c(=O)n(CC3CCCCC3)cnc12 [Example I-72] | 100
83 | O=C(Nc1nsc2c(=O)n(Cc3ccc(F)cc3F)cnc12)C(F)(F)C(F)(F)Cl [Example I-76] | 90
84 | CCC(=O)Nc1nsc2c(=O)n(CC3CCCCC3)cnc12 [Example I-54] | 100
85 | Nc1nsc2c1NCN(CC1CCCCC1)C2=O [Example I-61] | 100
86 | O=C(Nc1nsc2c(=O)n(CC3CCCCC3)cnc12)C(F)(F)F [Example I-53] | 100
87 | Nc1nsc2c1NCN(CC1CCCC1)C2=O [Example I-63] | 100
88 | O=C(Nc1nsc2c(=O)n(CC3CCCCC3)cnc12)C(F)(F)C(F)(F)F [Example I-57] | 100
89 | CC(=O)Nc1nsc2c(=O)n(CC3CCCCC3)cnc12 [Example I-55] | 100
90 | O=C(Nc1nsc2c(=O)n(CC3CCCCC3)cnc12)C(F)(F)C(F)(F)C(F)(F)F [Example I-58] | 100
91 | O=C(CC(F)(F)F)Nc1nsc2c(=O)n(CC3CCCCC3)cnc12 [Example I-73] | 100

These compounds were tested on SETVI (assay: Herbicidal action pre-emergence (PE)). Conditions: dosage 320 g/ha.
Format: in vivo, Setaria viridis

Row | SMILES | SETVI
92 | COC(=O)CCC(=O)Nc1nsc2c(=O)n(CC3CCCCC3)cnc12 [Example I-72] | 100
93 | O=C(Nc1nsc2c(=O)n(Cc3ccc(F)cc3F)cnc12)C(F)(F)C(F)(F)Cl [Example I-76] | 100
94 | CCC(=O)Nc1nsc2c(=O)n(CC3CCCCC3)cnc12 [Example I-54] | 100
95 | Nc1nsc2c1NCN(CC1CCCCC1)C2=O [Example I-61] | 100
96 | O=C(Nc1nsc2c(=O)n(CC3CCCCC3)cnc12)C(F)(F)F [Example I-53] | 100
97 | Nc1nsc2c1NCN(CC1CCCC1)C2=O [Example I-63] | 100
98 | O=C(Nc1nsc2c(=O)n(CC3CCCCC3)cnc12)C(F)(F)C(F)(F)F [Example I-57] | 100
99 | CC(=O)Nc1nsc2c(=O)n(CC3CCCCC3)cnc12 [Example I-55] | 100
100 | O=C(Nc1nsc2c(=O)n(CC3CCCCC3)cnc12)C(F)(F)C(F)(F)C(F)(F)F [Example I-58] | 100
101 | O=C(CC(F)(F)F)Nc1nsc2c(=O)n(CC3CCCCC3)cnc12 [Example I-73] | 100
